# Test results: patent publication US8975398B2, “NAMPT inhibitors” (AbbVie Inc., priority 2012, dated 2015)
# Experiments:
# [1] = molecular target: NAMPT (Homo sapiens, UniProt P43490); assay: Time-Resolved Fluorescence Resonance Energy Transfer (TR-FRET) Binding Assay of NAMPT with PRPP; conditions: 2 nM NAMPT, 2 nM probe, 200 uM PRPP and 2.5 mM ATP, equilibrated 16 hours
# How it was run: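 Final mix: 2 nM NAMPT, 2 nM probe, 1 nM Tb-anti-His antibody, 200 uM PRPP, 2.5 mM ATP, 2% DMSO in 1× assay buffer. Equilibrated 16 hours before TR-FRET read, allowing possible enzymatic modification of compounds.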
# [2] = molecular target: NAMPT (human, recombinant, C-terminally His-tagged) (Homo sapiens, UniProt P43490); assay: Time-Resolved Fluorescence Resonance Energy Transfer (TR-FRET) Binding Assay of NAMPT; conditions: 6.8 nM NAMPT, 200 nM probe, equilibrated 3 hours, absence of substrates
# How it was run: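 Recombinant C-terminally His-tagged human NAMPT (6.8 nM) incubated 3 h at room temperature with 200 nM Oregon Green 488–labelled nicotinamide-competitive probe and 1 nM Tb-anti-His antibody in HEPES pH 7.5, 2% DMSO. TR-FRET ratio Em520/Em495 normalized to controls; IC50 from four-parameter logistic fit.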
# Sequence of NAMPT (P43490 whole entry): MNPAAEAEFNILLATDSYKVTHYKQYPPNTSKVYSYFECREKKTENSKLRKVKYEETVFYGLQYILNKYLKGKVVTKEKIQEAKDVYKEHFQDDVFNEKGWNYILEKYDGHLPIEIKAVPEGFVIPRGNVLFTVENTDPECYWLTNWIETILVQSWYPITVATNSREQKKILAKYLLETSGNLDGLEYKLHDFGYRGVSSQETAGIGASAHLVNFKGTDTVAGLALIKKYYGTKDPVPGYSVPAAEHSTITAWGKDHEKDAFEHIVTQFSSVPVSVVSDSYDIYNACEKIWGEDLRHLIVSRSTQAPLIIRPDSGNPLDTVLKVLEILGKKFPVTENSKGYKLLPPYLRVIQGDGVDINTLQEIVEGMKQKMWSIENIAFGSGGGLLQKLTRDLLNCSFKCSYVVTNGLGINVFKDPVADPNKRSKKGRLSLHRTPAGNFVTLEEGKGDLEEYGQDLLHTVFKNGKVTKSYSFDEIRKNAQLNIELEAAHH
# Sequence of NAMPT (human, recombinant, C-terminally His-tagged) (P43490 whole entry): as above
SMILES,IC50 [1] [nM],IC50 [2] [nM]
"O=C(Nc1ccc(OC2CN(C(=O)C3CCCO3)C2)cc1)C1CN(c2ccnnc2)C1 (stereo not shown) [Example 262, 1-(pyridazin-4-yl)-N-(4-{[1-(tetrahydrofuran-2-ylcarbonyl)azetidin-3-yl]oxy}phenyl)azetidine-3-carboxamide]",34.3,130
"CC(C)CCC(=O)N1CC(Oc2ccc(NC(=O)C3CN(c4ccnnc4)C3)cc2)C1 [Example 263, N-(4-{[1-(4-methylpentanoyl)azetidin-3-yl]oxy}phenyl)-1-(pyridazin-4-yl)azetidine-3-carboxamide]",20.2,31.3
"CC(C)C(=O)N1CC(Oc2ccc(NC(=O)C3CN(c4ccnnc4)C3)cc2)C1 [Example 264, N-(4-{[1-(2-methylpropanoyl)azetidin-3-yl]oxy}phenyl)-1-(pyridazin-4-yl)azetidine-3-carboxamide]",13.4,52.8
"CC[C@H](C)C(=O)N1CC(Oc2ccc(NC(=O)C3CN(c4ccnnc4)C3)cc2)C1 [Example 265, N-[4-({1-[(2S)-2-methylbutanoyl]azetidin-3-yl}oxy)phenyl]-1-(pyridazin-4-yl)azetidine-3-carboxamide]",21.8,29.5
"CC(C)CC(=O)N1CCC(Oc2ccc(NC(=O)C3CN(c4ccnnc4)C3)cc2)CC1 [Example 266, N-(4-{[1-(3-methylbutanoyl)piperidin-4-yl]oxy}phenyl)-1-(pyridazin-4-yl)azetidine-3-carboxamide]",53.2,120
"COCC(=O)N1CCC(Oc2ccc(NC(=O)C3CN(c4ccnnc4)C3)cc2)CC1 [Example 267, N-(4-{[1-(methoxyacetyl)piperidin-4-yl]oxy}phenyl)-1-(pyridazin-4-yl)azetidine-3-carboxamide]",56.5,274
"O=C(Nc1ccc(OC2CCN(C(=O)CC(F)(F)F)CC2)cc1)C1CN(c2ccnnc2)C1 [Example 268, 1-(pyridazin-4-yl)-N-(4-{[1-(3,3,3-trifluoropropanoyl)piperidin-4-yl]oxy}phenyl)azetidine-3-carboxamide]",42.1,119
"O=C(Nc1ccc(OC2CCN(C(=O)C(F)(F)c3ccccc3)CC2)cc1)C1CN(c2ccnnc2)C1 [Example 269, N-[4-({1-[difluoro(phenyl)acetyl]piperidin-4-yl}oxy)phenyl]-1-(pyridazin-4-yl)azetidine-3-carboxamide]",22.3,37.7
"O=C(Nc1ccc(OC2CCN(C(=O)C3CCC(F)(F)CC3)CC2)cc1)C1CN(c2ccnnc2)C1 [Example 270, N-[4-({1-[(4,4-difluorocyclohexyl)carbonyl]piperidin-4-yl}oxy)phenyl]-1-(pyridazin-4-yl)azetidine-3-carboxamide]",35.7,74.8
"O=C(Nc1ccc(OC2CCN(C(=O)c3ccc(F)cc3)CC2)cc1)C1CN(c2ccnnc2)C1 [Example 271, N-(4-{[1-(4-fluorobenzoyl)piperidin-4-yl]oxy}phenyl)-1-(pyridazin-4-yl)azetidine-3-carboxamide]",25.2,78
"O=C(Nc1ccc(OC2CCN(C(=O)c3cscn3)CC2)cc1)C1CN(c2ccnnc2)C1 [Example 272, 1-(pyridazin-4-yl)-N-(4-{[1-(1,3-thiazol-4-ylcarbonyl)piperidin-4-yl]oxy}phenyl)azetidine-3-carboxamide]",52.4,165
"O=C(Nc1ccc(OC2CCN(C(=O)Cc3ccc(C(F)(F)F)cc3)CC2)cc1)C1CN(c2ccnnc2)C1 [Example 273, 1-(pyridazin-4-yl)-N-{4-[(1-{[4-(trifluoromethyl)phenyl]acetyl}piperidin-4-yl)oxy]phenyl}azetidine-3-carboxamide]",42.1,128
"O=C(Nc1ccc(OC2CCN(C(=O)c3ccc(F)c(F)c3)CC2)cc1)C1CN(c2ccnnc2)C1 [Example 274, N-(4-{[1-(3,4-difluorobenzoyl)piperidin-4-yl]oxy}phenyl)-1-(pyridazin-4-yl)azetidine-3-carboxamide]",64.5,152
"O=C(Nc1ccc(OC2CCN(C(=O)Cc3ccc(OC(F)(F)F)cc3)CC2)cc1)C1CN(c2ccnnc2)C1 [Example 275, 1-(pyridazin-4-yl)-N-{4-[(1-{[4-(trifluoromethoxy)phenyl]acetyl}piperidin-4-yl)oxy]phenyl}azetidine-3-carboxamide]",45.1,231

# Other lines, results leading:
IC50 [1] [nM],IC50 [2] [nM],SMILES
34.9,134,"O=C(Nc1ccc(OC2CCN(C(=O)Cc3ccc(F)cc3)CC2)cc1)C1CN(c2ccnnc2)C1 [Example 276, N-[4-({1-[(4-fluorophenyl)acetyl]piperidin-4-yl}oxy)phenyl]-1-(pyridazin-4-yl)azetidine-3-carboxamide]"
26.7,62.4,"O=C(Nc1ccc(OC2CCN(C(=O)Cc3ccc(F)cc3F)CC2)cc1)C1CN(c2ccnnc2)C1 [Example 277, N-[4-({1-[(2,4-difluorophenyl)acetyl]piperidin-4-yl}oxy)phenyl]-1-(pyridazin-4-yl)azetidine-3-carboxamide]"
33.4,75.8,"O=C(Nc1ccc(OC2CCN(C(=O)c3ccsc3)CC2)cc1)C1CN(c2ccnnc2)C1 [Example 278, 1-(pyridazin-4-yl)-N-(4-{[1-(thiophen-3-ylcarbonyl)piperidin-4-yl]oxy}phenyl)azetidine-3-carboxamide]"
15.5,20.2,"O=C(Nc1ccc(OC2CCN(C(=O)c3ccccc3Cl)CC2)cc1)C1CN(c2ccnnc2)C1 [Example 279, N-(4-{[1-(2-chlorobenzoyl)piperidin-4-yl]oxy}phenyl)-1-(pyridazin-4-yl)azetidine-3-carboxamide]"
51.9,123,"CC(C)(C)C(=O)N1CCC(Oc2ccc(NC(=O)C3CN(c4ccnnc4)C3)cc2)CC1 [Example 280, N-(4-{[1-(2,2-dimethylpropanoyl)piperidin-4-yl]oxy}phenyl)-1-(pyridazin-4-yl)azetidine-3-carboxamide]"
14.9,20.5,"CC(C)(C(=O)N1CCC(Oc2ccc(NC(=O)C3CN(c4ccnnc4)C3)cc2)CC1)c1ccccc1 [Example 281, N-(4-{[1-(2-methyl-2-phenylpropanoyl)piperidin-4-yl]oxy}phenyl)-1-(pyridazin-4-yl)azetidine-3-carboxamide]"
90,383,"CC(=O)N1CCC(Oc2ccc(NC(=O)C3CN(c4ccnnc4)C3)cc2)CC1 [Example 282, N-{4-[(1-acetylpiperidin-4-yl)oxy]phenyl}-1-(pyridazin-4-yl)azetidine-3-carboxamide]"
32.2,72.3,"O=C(Nc1ccc(OC2CCN(C(=O)c3nccs3)CC2)cc1)C1CN(c2ccnnc2)C1 [Example 283, 1-(pyridazin-4-yl)-N-(4-{[1-(1,3-thiazol-2-ylcarbonyl)piperidin-4-yl]oxy}phenyl)azetidine-3-carboxamide]"
38.2,62.4,"O=C(Nc1ccc(OC2CCN(C(=O)c3ccc(F)cc3F)CC2)cc1)C1CN(c2ccnnc2)C1 [Example 284, N-(4-{[1-(2,4-difluorobenzoyl)piperidin-4-yl]oxy}phenyl)-1-(pyridazin-4-yl)azetidine-3-carboxamide]"
